ChEMBL document CHEMBL5390310, “Rapid PROTAC Discovery Platform: Nanomole-Scale Array Synthesis and Direct Screening of Reaction Mixtures” (ACS Med Chem Lett, 2023)
Blank lines part the entries; values can stand above or below the molecule they belong to. Calls of active or inactive are those of the source. No cut-off for these calls is given here.

Tests used:
[1] = biological target: T1, von Hippel-Lindau disease tumor suppressor/Bromodomain-containing protein 4 (Homo sapiens, UniProt O60885+P40337); test: Protac activity at VHL E3 ligase/BRD4 in HEK293 cells assessed as BRD4 degradation by HiBiT assay; type: cell-based
T1 sequence (P40337 whole entry, looked up, other chains not shown): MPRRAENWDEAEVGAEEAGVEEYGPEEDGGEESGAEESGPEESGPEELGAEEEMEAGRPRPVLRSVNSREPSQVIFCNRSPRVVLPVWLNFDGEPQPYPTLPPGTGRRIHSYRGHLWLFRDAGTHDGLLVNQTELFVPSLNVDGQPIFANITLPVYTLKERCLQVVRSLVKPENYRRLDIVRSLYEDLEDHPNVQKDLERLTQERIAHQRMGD

[2] = biological target: T1, von Hippel-Lindau disease tumor suppressor/Bromodomain-containing protein 4; test: Protac activity at VHL E3 ligase/BRD4 in HEK293 cells assessed as degradation maximum by HiBiT assay relative to control; type: cell-based

SMILES: Cc1sc2c(c1C)C(c1ccc(Cl)cc1)=N[C@@H](CC(=O)N1CCN(CCCC3CCN(c4ccc5c(c4)CN(C4CCC(=O)NC4=O)C5=O)CC3)CC1)c1nnc(C)n1-2 (stereo in doubt) [listing 1 of 2 here]
pDC50 [1]: 8.8

SMILES: Cc1sc2c(c1C)C(c1ccc(Cl)cc1)=N[C@@H](CC(=O)N1CCN(CCCC3CCN(c4ccc5c(c4)CN(C4CCC(=O)NC4=O)C5=O)CC3)CC1)c1nnc(C)n1-2 (stereo in doubt; 11P) [listing 1 of 2 here]
pDC50 [1]: 9.7

SMILES: Cc1sc2c(c1C)C(c1ccc(Cl)cc1)=N[C@@H](CC(=O)N1CCN(CC#Cc3ccc4c(c3)CN(C3CCC(=O)NC3=O)C4=O)CC1)c1nnc(C)n1-2 (stereo in doubt) [listing 1 of 2 here]
Activity [1]: Active | Emax [2]: 96%

SMILES: Cc1sc2c(c1C)C(c1ccc(Cl)cc1)=N[C@@H](CC(=O)N1CCC(CCN3CCC4(CC3)CCN(c3ccc5c(c3)CN(C3CCC(=O)NC3=O)C5=O)CC4)CC1)c1nnc(C)n1-2 (stereo in doubt; 2P) [listing 1 of 2 here]
Emax [2]: 90%

SMILES: Cc1sc2c(c1C)C(c1ccc(Cl)cc1)=N[C@@H](CC(=O)N1CCN(CCC3CCN(c4ccc5c(c4)CN(C4CCC(=O)NC4=O)C5=O)CC3)CC1)c1nnc(C)n1-2 (stereo in doubt; 6P) [listing 1 of 2 here]
pDC50 [1]: 9.4

SMILES: Cc1sc2c(c1C)C(c1ccc(Cl)cc1)=N[C@@H](CC(=O)N1CCN(CC3CCN(c4ccc5c(c4)CN(C4CCC(=O)NC4=O)C5=O)CC3)CC1)c1nnc(C)n1-2 (stereo in doubt; 1P) [listing 2 of 2 here]
pDC50 [1]: 9.7

SMILES: Cc1sc2c(c1C)C(c1ccc(Cl)cc1)=N[C@@H](CC(=O)NCCCCCC(=O)NCCCC#Cc1cccc3c1CN(C1CCC(=O)NC1=O)C3=O)c1nnc(C)n1-2 (stereo in doubt; 9P) [listing 1 of 2 here]
pDC50 [1]: 7.4

SMILES: Cc1sc2c(c1C)C(c1ccc(Cl)cc1)=N[C@@H](CC(=O)N1CCN(CC3CCN(c4ccc5c(c4)CN(C4CCC(=O)NC4=O)C5=O)CC3)CC1)c1nnc(C)n1-2 (stereo in doubt) [listing 1 of 2 here]
pDC50 [1]: 9.1

SMILES: Cc1sc2c(c1C)C(c1ccc(Cl)cc1)=N[C@@H](CC(=O)N1CCC3(CCN(CC4CCN(c5ccc6c(c5)CN(C5CCC(=O)NC5=O)C6=O)CC4)CC3)CC1)c1nnc(C)n1-2 (stereo in doubt; 3P) [listing 1 of 2 here]
Emax [2]: 80%

SMILES: Cc1ncsc1-c1ccc(CNC(=O)[C@@H]2C[C@@H](O)CN2C(=O)[C@@H](NC(=O)CN2CCN(C(=O)CCCCCNC(=O)C[C@@H]3N=C(c4ccc(Cl)cc4)c4c(sc(C)c4C)-n4c(C)nnc43)CC2)C(C)(C)C)cc1 (stereo in doubt) [listing 2 of 2 here]
Emax [2]: 101%

SMILES: Cc1sc2c(c1C)C(c1ccc(Cl)cc1)=N[C@@H](CC(=O)NCCCCCC(=O)N1CCN(CCCC3CCN(c4ccc5c(c4)CN(C4CCC(=O)NC4=O)C5=O)CC3)CC1)c1nnc(C)n1-2 (stereo in doubt) [listing 2 of 2 here]
Emax [2]: 100%

SMILES: Cc1sc2c(c1C)C(c1ccc(Cl)cc1)=N[C@@H](CC(=O)NCCCCCC(=O)N1CCN(CCCC3CCN(c4ccc5c(c4)CN(C4CCC(=O)NC4=O)C5=O)CC3)CC1)c1nnc(C)n1-2 (stereo in doubt; 10P) [listing 1 of 2 here]
pDC50 [1]: 9.8

SMILES: Cc1ncsc1-c1ccc(CNC(=O)[C@@H]2C[C@@H](O)CN2C(=O)[C@@H](NC(=O)CN2CCN(C(=O)CCCCCNC(=O)C[C@@H]3N=C(c4ccc(Cl)cc4)c4c(sc(C)c4C)-n4c(C)nnc43)CC2)C(C)(C)C)cc1 (stereo in doubt; 8P) [listing 1 of 2 here]
Emax [2]: 80%

SMILES: Cc1sc2c(c1C)C(c1ccc(Cl)cc1)=N[C@@H](CC(=O)NCCCCCC(=O)NCCCC#Cc1cccc3c1CN(C1CCC(=O)NC1=O)C3=O)c1nnc(C)n1-2 (stereo in doubt; 9P) [listing 2 of 2 here]
Emax [2]: 83%

SMILES: Cc1sc2c(c1C)C(c1ccc(Cl)cc1)=N[C@@H](CC(=O)N1CCN(CCCC3CCN(c4ccc5c(c4)CN(C4CCC(=O)NC4=O)C5=O)CC3)CC1)c1nnc(C)n1-2 (stereo in doubt; 11P) [listing 2 of 2 here]
Emax [2]: 99%

SMILES: Cc1sc2c(c1C)C(c1ccc(Cl)cc1)=N[C@@H](CC(=O)N1CCC(CCN3CCC4(CC3)CCN(c3ccc5c(c3)CN(C3CCC(=O)NC3=O)C5=O)CC4)CC1)c1nnc(C)n1-2 (stereo in doubt; 2P) [listing 2 of 2 here]
pDC50 [1]: 9.2

SMILES: Cc1sc2c(c1C)C(c1ccc(Cl)cc1)=N[C@@H](CC(=O)N1CCC3(CC1)CCN(c1ccc4c(c1)CN(C1CCC(=O)NC1=O)C4=O)CC3)c1nnc(C)n1-2 (stereo in doubt; 5P)
pDC50 [1]: 8.6

SMILES: Cc1sc2c(c1C)C(c1ccc(Cl)cc1)=N[C@@H](CC(=O)N1CCN(CCCC3CCN(c4ccc5c(c4)CN(C4CCC(=O)NC4=O)C5=O)CC3)CC1)c1nnc(C)n1-2 (stereo in doubt) [listing 2 of 2 here]
Emax [2]: 100%

SMILES: Cc1sc2c(c1C)C(c1ccc(Cl)cc1)=N[C@@H](CC(=O)N1CCN(CCC3CCN(c4ccc5c(c4)CN(C4CCC(=O)NC4=O)C5=O)CC3)CC1)c1nnc(C)n1-2 (stereo in doubt) [listing 2 of 2 here]
Emax [2]: 99%

SMILES: Cc1sc2c(c1C)C(c1ccc(Cl)cc1)=N[C@@H](CC(=O)N1CCC3(CCN(CC4CCN(c5ccc6c(c5)CN(C5CCC(=O)NC5=O)C6=O)CC4)CC3)CC1)c1nnc(C)n1-2 (stereo in doubt; 3P) [listing 2 of 2 here]
pDC50 [1]: 9.1

SMILES: Cc1sc2c(c1C)C(c1ccc(Cl)cc1)=N[C@@H](CC(=O)N1CCC3(CCN(CC4CCN(c5ccc6c(c5)CN(C5CCC(=O)NC5=O)C6=O)CC4)CC3)CC1)c1nnc(C)n1-2 (stereo in doubt) [listing 2 of 2 here]
pDC50 [1]: 9.2

Further lines, results first:

Emax [2]: 93%
SMILES: Cc1sc2c(c1C)C(c1ccc(Cl)cc1)=N[C@@H](CC(=O)NCCCCCC(=O)NCCCC#Cc1cccc3c1CN(C1CCC(=O)NC1=O)C3=O)c1nnc(C)n1-2 (stereo in doubt) [listing 1 of 2 here]

pDC50 [1]: 9.3
SMILES: Cc1sc2c(c1C)C(c1ccc(Cl)cc1)=N[C@@H](CC(=O)NCCCCCC(=O)N1CCN(CCCC3CCN(c4ccc5c(c4)CN(C4CCC(=O)NC4=O)C5=O)CC3)CC1)c1nnc(C)n1-2 (stereo in doubt) [listing 1 of 2 here]

Emax [2]: 94%
SMILES: Cc1ncsc1-c1ccc(CNC(=O)[C@@H]2C[C@@H](O)CN2C(=O)[C@@H](NC(=O)CCCCCCNC(=O)C[C@@H]2N=C(c3ccc(Cl)cc3)c3c(sc(C)c3C)-n3c(C)nnc32)C(C)(C)C)cc1 (stereo in doubt; 7P) [listing 1 of 2 here]

Emax [2]: 91%
SMILES: Cc1sc2c(c1C)C(c1ccc(Cl)cc1)=N[C@@H](CC(=O)N1CCN(CC#Cc3ccc4c(c3)CN(C3CCC(=O)NC3=O)C4=O)CC1)c1nnc(C)n1-2 (stereo in doubt; 4P) [listing 1 of 2 here]

pDC50 [1]: 8.8
SMILES: Cc1sc2c(c1C)C(c1ccc(Cl)cc1)=N[C@@H](CC(=O)N1CCN(CCC3CCN(c4ccc5c(c4)CN(C4CCC(=O)NC4=O)C5=O)CC3)CC1)c1nnc(C)n1-2 (stereo in doubt) [listing 1 of 2 here]

pDC50 [1]: 8.5
SMILES: Cc1sc2c(c1C)C(c1ccc(Cl)cc1)=N[C@@H](CC(=O)N1CCN(CC#Cc3ccc4c(c3)CN(C3CCC(=O)NC3=O)C4=O)CC1)c1nnc(C)n1-2 (stereo in doubt; 4P) [listing 2 of 2 here]

Emax [2]: 89%
SMILES: Cc1sc2c(c1C)C(c1ccc(Cl)cc1)=N[C@@H](CC(=O)N1CCN(CC3CCN(c4ccc5c(c4)CN(C4CCC(=O)NC4=O)C5=O)CC3)CC1)c1nnc(C)n1-2 (stereo in doubt; 1P) [listing 1 of 2 here]

pDC50 [1]: 8
SMILES: Cc1sc2c(c1C)C(c1ccc(Cl)cc1)=N[C@@H](CC(=O)N1CCN(CC#Cc3ccc4c(c3)CN(C3CCC(=O)NC3=O)C4=O)CC1)c1nnc(C)n1-2 (stereo in doubt) [listing 2 of 2 here]

pDC50 [1]: 6.3
SMILES: Cc1ncsc1-c1ccc(CNC(=O)[C@@H]2C[C@@H](O)CN2C(=O)[C@@H](NC(=O)CN2CCN(C(=O)CCCCCNC(=O)C[C@@H]3N=C(c4ccc(Cl)cc4)c4c(sc(C)c4C)-n4c(C)nnc43)CC2)C(C)(C)C)cc1 (stereo in doubt) [listing 1 of 2 here]

pDC50 [1]: 6.8
SMILES: Cc1ncsc1-c1ccc(CNC(=O)[C@@H]2C[C@@H](O)CN2C(=O)[C@@H](NC(=O)CCCCCCNC(=O)C[C@@H]2N=C(c3ccc(Cl)cc3)c3c(sc(C)c3C)-n3c(C)nnc32)C(C)(C)C)cc1 (stereo in doubt; 7P) [listing 2 of 2 here]

Emax [2]: 100%
SMILES: Cc1sc2c(c1C)C(c1ccc(Cl)cc1)=N[C@@H](CC(=O)N1CCN(CC3CCN(c4ccc5c(c4)CN(C4CCC(=O)NC4=O)C5=O)CC3)CC1)c1nnc(C)n1-2 (stereo in doubt) [listing 2 of 2 here]

pDC50 [1]: 6.9
SMILES: Cc1ncsc1-c1ccc(CNC(=O)[C@@H]2C[C@@H](O)CN2C(=O)[C@@H](NC(=O)CCCCCCNC(=O)C[C@@H]2N=C(c3ccc(Cl)cc3)c3c(sc(C)c3C)-n3c(C)nnc32)C(C)(C)C)cc1 (stereo in doubt) [listing 1 of 2 here]

pDC50 [1]: 8.8
SMILES: Cc1sc2c(c1C)C(c1ccc(Cl)cc1)=N[C@@H](CC(=O)N1CCC3(CC1)CCN(c1ccc4c(c1)CN(C1CCC(=O)NC1=O)C4=O)CC3)c1nnc(C)n1-2 (stereo in doubt) [listing 1 of 2 here]

Emax [2]: 99%
SMILES: Cc1sc2c(c1C)C(c1ccc(Cl)cc1)=N[C@@H](CC(=O)N1CCC3(CCN(CC4CCN(c5ccc6c(c5)CN(C5CCC(=O)NC5=O)C6=O)CC4)CC3)CC1)c1nnc(C)n1-2 (stereo in doubt) [listing 1 of 2 here]

pDC50 [1]: 9
SMILES: Cc1sc2c(c1C)C(c1ccc(Cl)cc1)=N[C@@H](CC(=O)N1CCC(CCN3CCC4(CC3)CCN(c3ccc5c(c3)CN(C3CCC(=O)NC3=O)C5=O)CC4)CC1)c1nnc(C)n1-2 (stereo in doubt) [listing 1 of 2 here]

Emax [2]: 96%
SMILES: Cc1ncsc1-c1ccc(CNC(=O)[C@@H]2C[C@@H](O)CN2C(=O)[C@@H](NC(=O)CCCCCCNC(=O)C[C@@H]2N=C(c3ccc(Cl)cc3)c3c(sc(C)c3C)-n3c(C)nnc32)C(C)(C)C)cc1 (stereo in doubt) [listing 2 of 2 here]

Emax [2]: 100%
SMILES: Cc1sc2c(c1C)C(c1ccc(Cl)cc1)=N[C@@H](CC(=O)N1CCC3(CC1)CCN(c1ccc4c(c1)CN(C1CCC(=O)NC1=O)C4=O)CC3)c1nnc(C)n1-2 (stereo in doubt) [listing 2 of 2 here]

pDC50 [1]: 7.3
SMILES: Cc1sc2c(c1C)C(c1ccc(Cl)cc1)=N[C@@H](CC(=O)NCCCCCC(=O)NCCCC#Cc1cccc3c1CN(C1CCC(=O)NC1=O)C3=O)c1nnc(C)n1-2 (stereo in doubt) [listing 2 of 2 here]

Emax [2]: 79%
SMILES: Cc1sc2c(c1C)C(c1ccc(Cl)cc1)=N[C@@H](CC(=O)N1CCN(CCC3CCN(c4ccc5c(c4)CN(C4CCC(=O)NC4=O)C5=O)CC3)CC1)c1nnc(C)n1-2 (stereo in doubt; 6P) [listing 2 of 2 here]

Emax [2]: 100%
SMILES: Cc1sc2c(c1C)C(c1ccc(Cl)cc1)=N[C@@H](CC(=O)N1CCC(CCN3CCC4(CC3)CCN(c3ccc5c(c3)CN(C3CCC(=O)NC3=O)C5=O)CC4)CC1)c1nnc(C)n1-2 (stereo in doubt) [listing 2 of 2 here]

pDC50 [1]: 6.2
SMILES: Cc1ncsc1-c1ccc(CNC(=O)[C@@H]2C[C@@H](O)CN2C(=O)[C@@H](NC(=O)CN2CCN(C(=O)CCCCCNC(=O)C[C@@H]3N=C(c4ccc(Cl)cc4)c4c(sc(C)c4C)-n4c(C)nnc43)CC2)C(C)(C)C)cc1 (stereo in doubt; 8P) [listing 2 of 2 here]

Emax [2]: 99%
SMILES: Cc1sc2c(c1C)C(c1ccc(Cl)cc1)=N[C@@H](CC(=O)NCCCCCC(=O)N1CCN(CCCC3CCN(c4ccc5c(c4)CN(C4CCC(=O)NC4=O)C5=O)CC3)CC1)c1nnc(C)n1-2 (stereo in doubt; 10P) [listing 2 of 2 here]
